The text below walks through data of patent publication US6881409B2, “Compositions and methods for promoting nerve regeneration” (Oregon Health and Science University, priority 1997, dated 2005).

The subject of the assay is SH-SY5Y human neuroblastoma cells. The assay is described as follows: Neurite outgrowth (neuritic process length) of NGF-differentiated SH-SY5Y cells. The class given is cell-based. The protocol: Cell cultures. SH-SY5Y human neuroblastoma cells were maintained in DMEM medium (GIBCO) supplemented with 10% fetal calf serum (SIGMA), 50 IU/mL penicillin, and […] streptomycin (GIBCO) at 37° C. in 7% CO^2. Cells were plated in six-well plates at 1×10^6 cells/well and treated with […] aphidicolin (SIGMA). At five days, cells were washed, treated with nerve growth factor (NGF) (Boehringer Mannheim, Indianapolis, Ind.) at 10 ng/mL (to induce process outgrowth) in the presence or absence of FK506 (1 and 10 nM) (Calbiochem-Novabiochem Int'l., La Jolla, Calif.) and/or geldanamycin (0.1, 1, and 10 nM) (Calbiochem-Novabiochem, La Jolla, Calif.). Media was changed at 96 hours and replaced with fresh media with the compounds (NGF plus FK506 and/or geldanamycin) for an additional 72 hours (total time, 168 hours). The top 50% of axonal lengths were selected for statistical analysis. All experiments were run in duplicate wells and repeated at least twice for reproducibility.
Light morphometry of neurite lengths. For analysis of process length, cells 20 fields per well) were randomly photographed at 72 and 168 hours. Neurite lengths were measured on photographic prints using a Houston Instrument HI-PAD digitizing tablet connected to an IBM XT computer with appropriate software (Bioquant IV, R&M Biometrics, Nashville, Tenn.); only those processes greater than two times the cell body length were measured. Data from identically treated wells were not different and were therefore combined. […] Histograms were compared using a Mann-Whitney U test, which makes no assumptions about the shape of the distribution.
Preparation of FK506 and geldanamycin. FK506 (mol. wt. 822) and geldanamycin (mol. wt. 561) were dissolved in DMEM medium.
In a first set of experiments, SH-SY5Y neuroblastoma cells were plated in 6-well plates with DMEM plus 15% FCS and differentiated with NGF (10 ng/ml). The effects of various concentrations of geldanamycin and FK506 on neurite growth, alone and in combination, were tested.

`COC1=C2C[C@@H](C)C[C@H](OC)[C@H](O)[C@@H](C)/C=C(\C)[C@H](OC(N)=O)[C@@H](OC)/C=C\C=C(/C)C(=O)NC(=CC1=O)C2=O` [Geldanamycin, geldanamycin]: the Mean Length of Top 50% of Neuritic Processes reads like this: (Table 1, geldanamycin 1 nM + NGF 10 ng/mL, 168 hours) 64 µm; (Table 1, geldanamycin 10 nM + NGF 10 ng/mL, 168 hours) 54.8 µm; (Table 2, geldanamycin 0.1 nM + NGF 10 ng/mL, 168 hours) 98.1 µm. Besides, the “effect on length of the processes” value (first set, geldanamycin 10 nM in the presence of NGF) is “no effect”.
Turning to `C=CC[C@@H]1/C=C(\C)C[C@H](C)C[C@H](OC)[C@H]2O[C@@](O)(C(=O)C(=O)N3CCCC[C@H]3C(=O)O[C@H](/C(C)=C/[C@@H]3CC[C@@H](O)[C@H](OC)C3)[C@H](C)[C@@H](O)CC1=O)[C@H](C)C[C@@H]2OC` [FK506], the Mean Length of Top 50% of Neuritic Processes runs as follows: (Table 1, FK506 10 nM + NGF 10 ng/mL, 168 hours) 77.8 µm; (Table 2, FK506 1 nM + NGF 10 ng/mL, 168 hours) 89.9 µm; (Table 2, FK506 10 nM + NGF 10 ng/mL, 168 hours) 82.7 µm.
In the case of estrogen, for the setting “10 nM with FK506 10 nM”, the “effect on neurite outgrowth with FK506” value is “additive effect”. The “neurite outgrowth” value (10 nM, without NGF) is recorded as “increased neurite outgrowth”.

B1: NGF: nerve growth factor (Boehringer Mannheim), used to induce process outgrowth (protein, UniProt P01139 122-241, looked up)
Beta-nerve growth factor: SSTHPVFHMGEFSVCDSVSVWVGDKTTATDIKGKEVTVLAEVNINNSVFRQYFFETKCRASNPVESGCRGIDSKHWNSYCTTTHTFVKALTTDEKQAAWRFIRIDTACVCVLSRKATRRG
Take B1: the Mean Length of Top 50% of Neuritic Processes reads like this: (Table 1 (first set), NGF 10 ng/mL only, 168 hours after treatment) 54 µm; (Table 2 (second set), NGF 10 ng/mL only, 168 hours) 70.4 µm. Moreover, for the setting “first set, NGF 10 ng/mL, 168 hours”, the “mean length of the processes compared to untreated cells” value was “more than doubled”. The “mean neuritic lengths compared to untreated control cells” value (second set, NGF-treated cells) is recorded as “more than double”.
